The results in this text go back to paper doi:10.1101/2024.10.11.617762v1 (biorxiv, 2024).

Usually Kd stands for a measure of binding affinity in units of concentration. Read a high Kd as a looser complex. As a reminder, the IC50 is the concentration that gives 50% inhibition. High values mean a need for much substance, low ones inhibition by little substance.

For test [1], the target named is T1, N-CTD (C-terminal domain of the SARS-CoV-2 nucleocapsid (N) protein) (Severe acute respiratory syndrome coronavirus 2, UniProt P0DTC9). Put plainly: biochemical. The format is binding.
Test [2] deals with T1, N-CTD (C-terminal domain of the SARS-CoV-2 nucleocapsid (N) protein). Put plainly: fluorescence intensity inhibition of FAM-RNA binding. In kind it is biochemical.

Regarding `CC1(C)S[C@@H]2[C@H](NC(=O)[C@H](N)c3ccccc3)C(=O)N2[C@H]1C(=O)O` [ampicillin], in test [1], binding was characterised by a dissociation constant (Kd) of 28 ± 1.2 µM. In test [2], this molecule yielded a half-inhibitory concentration (IC50) of 10.4 ± 0.2 µM.
In test [1], `CO/N=C(\C(=O)N[C@@H]1C(=O)N2C(C(=O)O)=C(CSc3nc(=O)c(=O)[nH]n3C)CS[C@H]12)c1csc(N)n1` [ceftriaxone] came in with a Kd of 18 ± 1.3 µM. Also, the IC50 in test [2] amounted to 12.4 ± 2.4 µM.
As for `CO/N=C(\C(=O)N[C@@H]1C(=O)N2C(C(=O)O)=C(COC(N)=O)CS[C@H]12)c1ccco1` [cefuroxime], in test [1], binding was characterised by a dissociation constant (Kd) of 55 ± 4.2 µM. Moreover, the IC50 in test [2] was 15.4 ± 2.8 µM.
